From patent US7247617B2, “Sixteen-member macrolide antiinfective agents” (Kosan Biosciences Incorporated, priority 2004, dated 2007)

Columns and labels:
[1] = system: S. pneumoniae; assay: Biological activity against bacterial strains: S. pneumoniae; assay type: cell-based, Streptococcus pneumoniae; parameters: Biological Activity, S. pneumoniae ATCC6301 / Biological Activity, S. pneumoniae ATCC700671 / Biological Activity, S. pneumoniae ATCC700676* / Biological Activity, S. pneumoniae ATCC700677* / Biological Activity, S. pneumoniae ATCC700905* / Biological Activity, S. pneumoniae ATCC700906* / Biological Activity, S. pneumoniae ATCC49619: unit not given here; details: for Biological Activity, S. pneumoniae ATCC6301: strain ATCC6301; for Biological Activity, S. pneumoniae ATCC49619: strain ATCC49619; for Biological Activity, S. pneumoniae ATCC700671: strain ATCC700671; for Biological Activity, S. pneumoniae ATCC700676*: strain ATCC700676, macrolide resistant strain; for Biological Activity, S. pneumoniae ATCC700677*: strain ATCC700677, macrolide resistant strain; for Biological Activity, S. pneumoniae ATCC700905*: strain ATCC700905, macrolide resistant strain; for Biological Activity, S. pneumoniae ATCC700906*: strain ATCC700906, macrolide resistant strain
[2] = system: S. aureus; assay: Biological activity against bacterial strains: S. aureus; assay type: cell-based, Staphylococcus aureus; parameters: unit not given here; details: for Biological Activity, S. aureus ATCC6538p: strain ATCC6538p; for Biological Activity, S. aureus ATCC14154*: strain ATCC14154, macrolide resistant strain; for Biological Activity, S. aureus ATCC29213: strain ATCC29213; for Biological Activity, S. aureus ATCC33591*: strain ATCC33591, macrolide resistant strain; for Biological Activity, S. aureus ATCCBAA-39*: strain ATCCBAA-39, macrolide resistant strain; for Biological Activity, S. aureus ATCCBAA-44*: strain ATCCBAA-44, macrolide resistant strain
[3] = system: S. epidermidis; assay: Biological activity against bacterial strains: S. epidermidis; assay type: cell-based, Staphylococcus epidermidis; details: strain ATCC12228
[4] = system: E. faecalis; assay: Biological activity against bacterial strains: E. faecalis; assay type: cell-based, Enterococcus faecalis; details: strain ATCC51575
[5] = system: a series of bacterial strains; assay: Biological activity against a series of bacterial strains (overall statements); assay type: cell-based
Excerpt: Results for S. pneumoniae, S. aureus, S. epidermidis, and E. faecalis are provided in Table B. Data on activity against H. influenzae for selected compounds are presented in Table C.

[6] = system: Haemophilus Influenzae; assay: H. influenzae Activity; assay type: cell-based

SMILES: CCC1OC(=O)CC(O)C(C)C(OC2OC(C)C(O)C(N(C)C)C2O)C(CC=O)CC(C)C(=NOCC#Cc2cnc3ccccc3c2)C=CC(C)=CC1CO (single isomer, unassigned) [Compound E]
- Biological Activity, S. pneumoniae ATCC6301 [1]: 0.025
- Biological Activity, S. pneumoniae ATCC49619 [1]: 0.025
- Biological Activity, S. pneumoniae ATCC700671 [1]: 0.025
- Biological Activity, S. pneumoniae ATCC700676* [1]: 0.025
- Biological Activity, S. pneumoniae ATCC700677* [1]: >12.5
- Biological Activity, S. pneumoniae ATCC700905* [1]: 0.049
- Biological Activity, S. pneumoniae ATCC700906* [1]: >12.5
- Biological Activity, S. aureus ATCC6538p [2]: 0.098
- Biological Activity, S. aureus ATCC14154* [2]: 0.39
- Biological Activity, S. aureus ATCC29213 [2]: 0.39
- Biological Activity, S. aureus ATCC33591* [2]: >12.5
- Biological Activity, S. aureus ATCCBAA-39* [2]: >12.5
- Biological Activity, S. aureus ATCCBAA-44* [2]: >12.5
- Biological Activity, S. epidermidis ATCC12228 [3]: 0.098
- Biological Activity, E. faecalis ATCC51575 [4]: >12.5
- activity of Z-configuration oxime versus its E counterpart (in words) [5]: more active than compound D

SMILES: CCC1OC(=O)CC(O)C(C)C(OC2OC(C)C(O)C(N(C)C)C2O)C(CCN2CC(C)CC(C)C2)CC(C)C(=O)C=CC(C)=CC1CO (stereo not drawn) [Compound 8, 20-Deoxy(3,5-dimethyl-1-piperidine)OMT, reference compound]
- Biological Activity, S. pneumoniae ATCC6301 [1]: 0.39
- Biological Activity, S. pneumoniae ATCC49619 [1]: 0.78
- Biological Activity, S. pneumoniae ATCC700671 [1]: 0.78
- Biological Activity, S. pneumoniae ATCC700676* [1]: 1.56
- Biological Activity, S. pneumoniae ATCC700677* [1]: >12.5
- Biological Activity, S. pneumoniae ATCC700905* [1]: 1.56
- Biological Activity, S. pneumoniae ATCC700906* [1]: >12.5
- Biological Activity, S. aureus ATCC6538p [2]: 0.39
- Biological Activity, S. aureus ATCC14154* [2]: 1.56
- Biological Activity, S. aureus ATCC29213 [2]: 1.56
- Biological Activity, S. aureus ATCC33591* [2]: >12.5
- Biological Activity, S. aureus ATCCBAA-39* [2]: >12.5
- Biological Activity, S. aureus ATCCBAA-44* [2]: >12.5
- Biological Activity, S. epidermidis ATCC12228 [3]: 0.78
- Biological Activity, E. faecalis ATCC51575 [4]: >12.5
- antibiotic / antibacterial activity (in words) [5]: no antibiotic activity

SMILES: CCC1OC(=O)CC(O)C(C)C(OC2OC(C)C(O)C(N(C)C)C2O)C(CCN2CC(C)CC(C)C2)CC(C)C(=NO)C=CC(C)=CC1CO (stereo not drawn) [Compound 9, 20-deoxy(3,5-dimethyl-1-piperidine)OMT 9-oxime, reference compound]
- antibiotic / antibacterial activity (in words) [5]: no antibiotic activity

SMILES: CC[C@H]1OC(=O)C[C@@H](O)[C@H](C)[C@@H](OC2OC(C)C(O)C(N(C)C)C2O)[C@@H](CC=O)C[C@@H](C)C(=N\OCCOc2ccccc2)/C=C/C(C)=C/C1CO (stereo partly drawn) [Compound IIb]
- Biological Activity, S. pneumoniae ATCC6301 [1]: 0.025
- Biological Activity, S. pneumoniae ATCC49619 [1]: 0.20
- Biological Activity, S. pneumoniae ATCC700671 [1]: 0.20
- Biological Activity, S. pneumoniae ATCC700676* [1]: 0.025
- Biological Activity, S. pneumoniae ATCC700677* [1]: 1.56
- Biological Activity, S. pneumoniae ATCC700905* [1]: 0.20
- Biological Activity, S. pneumoniae ATCC700906* [1]: >12.5
- Biological Activity, S. aureus ATCC6538p [2]: 0.39
- Biological Activity, S. aureus ATCC14154* [2]: 1.56
- Biological Activity, S. aureus ATCC29213 [2]: 1.56
- Biological Activity, S. aureus ATCC33591* [2]: >12.5
- Biological Activity, S. aureus ATCCBAA-39* [2]: >12.5
- Biological Activity, S. aureus ATCCBAA-44* [2]: >12.5
- Biological Activity, S. epidermidis ATCC12228 [3]: 0.78
- Biological Activity, E. faecalis ATCC51575 [4]: >12.5
- activity of Z-configuration oxime versus its E counterpart (in words) [5]: more active than compound Ia

SMILES: CC[C@H]1OC(=O)C[C@@H](O)[C@H](C)[C@@H](O[C@@H]2O[C@H](C)[C@@H](O)[C@H](N(C)C)[C@H]2O)[C@@H](CC=O)C[C@@H](C)C(=O)/C=C/C(C)=C/[C@@H]1CO [OMT, 5-O-mycaminosyltylonolide, reference compound]
- Biological Activity, S. pneumoniae ATCC6301 [1]: 0.025
- Biological Activity, S. pneumoniae ATCC49619 [1]: 0.098
- Biological Activity, S. pneumoniae ATCC700671 [1]: 0.049
- Biological Activity, S. pneumoniae ATCC700676* [1]: 0.78
- Biological Activity, S. pneumoniae ATCC700677* [1]: 6.25
- Biological Activity, S. pneumoniae ATCC700905* [1]: 0.78
- Biological Activity, S. pneumoniae ATCC700906* [1]: >12.5
- Biological Activity, S. aureus ATCC6538p [2]: 0.39
- Biological Activity, S. aureus ATCC14154* [2]: 1.56
- Biological Activity, S. aureus ATCC29213 [2]: 0.78
- Biological Activity, S. aureus ATCC33591* [2]: >12.5
- Biological Activity, S. aureus ATCCBAA-39* [2]: >12.5
- Biological Activity, S. aureus ATCCBAA-44* [2]: >12.5
- Biological Activity, S. epidermidis ATCC12228 [3]: 0.39
- Biological Activity, E. faecalis ATCC51575 [4]: >12.5
- H. influenzae Activity, strain ATCC9006 ([6]; strain ATCC9006): 1.56
- H. influenzae Activity, strain ATCC49766 ([6]; strain ATCC49766): 1.56
- H. influenzae Activity, strain EH001 ([6]; strain EH001): 3.12
- H. influenzae Activity, strain EH002 ([6]; strain EH002): 6.25
- H. influenzae Activity, strain EH003 ([6]; strain EH003): 1.56
